Experimental data reported in paper PMC7582905, “Effect of Disulfide Cyclization of Ultrashort Cationic Lipopeptides on Antimicrobial Activity and Cytotoxicity” (International Journal of Molecular Sciences, 2020).
Converted amounts (≈) assume the structure as drawn. Where a SMILES comes first, the peptide text is derived from it. Bridges are numbered along the chain shown (N, C = ends). The star is where a group is joined. Palmitoyl = CCCCCCCCCCCCCCCC(=O)*

Key:
[1] = RP-HPLC determination of peptide hydrophobicity; format: physicochemical; conditions: 0.1% TFA
Experimental: The peptides were analyzed by RP-HPLC to determine relative hydrophobicity vs. retention time of each compound. In general, more hydrophobic lipopeptides will elute later than hydrophilic ones. Using this simple rule enables comparison of hydrophobicity by reduced retention times (t’R) and differences in retention time between the cyclic analog and its linear parent lipopeptide (Table 1). It can be deduced that the presence of cystine moiety has led to increased hydrophobicity. All cyclic lipopeptides are more hydrophobic than their linear counterparts but the effect of disulfide cyclization on retention is different in each pair. The highest increase in retention was noticed for the shortest lipopeptides L1 (C16-KKK-NH2) and C1 (C16-CKKKC-NH2). The differences between lipopeptides with one arginine residue indicate that its position is crucial for retention and therefore hydrophobicity. To learn how the arginine position affects hydrophobicity, the retention time of compound L2 (C16-KKKK-NH2) or C2 (C16-CKKKKC-NH2) was subtracted from that of the lipopeptides with one arginine residue, linear (L3, L4, L5, L6) or cyclic (C3, C4, C5, C6), respectively. In Figure 2 the effect of arginine position on retention time is related to unsubstituted lipopeptide.
To determine peptide hydrophobicity, a Waters Alliance e2695 system with a Waters 2998 PDA Detector (software-Empower 3, Waters, Milford, MA, USA) was used. All analyses were carried out on a Waters X-Bridge Shield RP-18 column (3.0 × 100 mm, 3.5 μm particle size, 130 Å pore size). The Shield Technology column with embedded polar groups was used to minimize interactions of unreacted silanol groups with basic lipopeptides. The peptides were dissolved in water (0.1% TFA, v/v) up to a concentration of 1 g/L. UV detection at 214 nm was used, and samples (10 μL) were eluted with a linear 20–65% acetonitrile gradient in deionized water over 30 min at 25.0 ± 0.1 °C. The mobile phase flow rate was 0.5 mL/min. Both eluents contained 0.1% (v/v) of TFA. Each peptide sample was analyzed in triplicate. Maximum standard deviation and coefficient of variation were 0.042 and 0.25%, respectively.

[2] = system: Candida glabrata ATCC 15126; format: cell-based; conditions: ATCC 15126, 24 h
Experimental: (§1) The Staphylococcus aureus ATCC 25923, Staphylococcus epidermidis ATCC 14990, Escherichia coli ATCC 25922, Pseudomonas aeruginosa ATCC 9027, Candida albicans ATCC 10231, Candida glabrata ATCC 15126, Candida lipolytica PCM 2680-FY, and Candida tropicalis PCM 2709-FY strains were acquired from the Polish Collection of Microorganisms (PCM, Polish Academy of Sciences, Wrocław, Poland) and from the American Type Culture Collection (ATCC). All the strains were stored at −80 °C in Roti-Store cryo vials and before the tests were transferred into fresh Mueller–Hinton broth (MHB, Biocorp, Warsaw, Poland) for bacteria or RPMI-1640 (Sigma-Aldrich, Steinheim, Germany) for fungi and incubated for 24 h at 37 °C. Then, the cultures were seeded on Mueller–Hinton agar (BioMaxima, Lublin, Poland) or Sabouraud dextrose agar (SDA, BioMaxima, Lublin, Poland) plates, respectively, and incubated as just mentioned. These agar cultures were used for further microbiological assays. Cell densities for all assays were adjusted spectrophotometrically (Multiskan GO Microplate Spectrophotometer, Thermo Fisher Scientific, Vantaa, Finland) at 600 and 660 nm for bacteria and fungi, respectively.
(§2) The MICs were determined by broth microdilution method according to the Clinical and Laboratory Standard Institute guidelines For this purpose, initial inoculums of bacteria (5 × 10^5 CFU/mL) in MHB and yeasts (2 × 10^3 CFU/mL) in RPMI-1640 with 2% D-glucose were exposed to the ranging concentration of lipopeptides (0.5–256 μg/mL) and incubated at 37 °C for 18 h and 24 h, respectively. The experiments were conducted on 96-well microtiter polystyrene plates. The growth was assessed visually after incubation and the MIC was assumed as the lowest peptide concentration at which a noticeable growth of microorganisms was inhibited. All experiments were conducted in triplicate.

[3] = system: Candida lipolytica PCM 2680-FY; format: cell-based; conditions: 24 h
Experimental: as §1, §2

[4] = system: Candida tropicalis PCM 2709-FY; format: cell-based; conditions: PCM 2709-FY, 24 h
Experimental: as §1, §2

[5] = system: Escherichia coli ATCC 25922; format: cell-based; conditions: ATCC 25922, 18 h
Experimental: as §1, §2

[6] = system: Candida albicans ATCC 10231; format: cell-based; conditions: ATCC 10231, 24 h
Experimental: as §1
(§3) MBECs were determined on 96-well polystyrene flat-bottom plates. For this purpose, 24 h cultures of microorganisms were diluted to obtain final density 5.0 × 10^5 CFU/mL and 2.0 × 10^5 CFU/mL of bacteria and fungi, respectively. Briefly, 100 µL of cell suspension was added into the test plates. After 24 h of incubation at 37 °C the wells were rinsed three times with a phosphate buffer saline (PBS, pH 7.4) to remove non-adherent cells. Subsequently, 100 μL of the test compounds in concentration range (0.5–256 μg/mL) were added to each well. After 24 h of incubation at 37 °C, 20 μL of a cell viability reagent was added (resazurin, 4 g/L; Sigma Aldrich, St. Louis, MO, USA). The MBEC was read after 1 h. The determined values were recorded as the lowest concentration at which the reduction of resazurin (from blue to pink) was lower or equal to 10 ± 0.5% as compared to the positive (100%) and negative (0%) controls. The reduction was monitored by measuring absorbance at 570 nm (reduced) and 600 nm (oxidized) using a microplate spectrophotometer (Multiskan GO Microplate Spectrophotometer, Thermo Fisher Scientific, Vantaa, Finland). All experiments were conducted in triplicate.

[7] = system: Candida glabrata ATCC 15126; format: cell-based; conditions: ATCC 15126, 24 h; remark: listed apart in the source
Experimental: as §1, §3

[8] = system: Candida lipolytica PCM 2680-FY; format: cell-based; conditions: 24 h; remark: listed apart in the source
Experimental: as §1, §3

[9] = system: Candida tropicalis PCM 2709-FY; format: cell-based; conditions: PCM 2709-FY, 24 h; remark: listed apart in the source
Experimental: as §1, §3

[10] = system: Escherichia coli ATCC 25922; format: cell-based; conditions: ATCC 25922, 24 h
Experimental: as §1, §3

[11] = system: Pseudomonas aeruginosa ATCC 9027; format: cell-based; conditions: ATCC 9027, 24 h
Experimental: as §1, §3

[12] = system: Staphylococcus epidermidis ATCC 14990; format: cell-based; conditions: ATCC 14990, 24 h
Experimental: as §1, §3

CCCCCCCCCCCCCCCC(=O)N[C@H]1CSSC[C@@H](C(N)=O)NC(=O)[C@H](CCCNC(=N)N)NC(=O)[C@H](CCCCN)NC(=O)[C@H](CCCCN)NC(=O)[C@H](CCCCN)NC1=O [C6, C16-CKKKRC-NH2] (Palmitoyl-CKKKRC-NH2; disulfide 1-6)
reduced retention time t’R ([1]; RP-HPLC retention as measure of hydrophobicity, Waters X-Bridge Shield RP-18 3.0 × 100 mm, 3.5 μm, linear 20–65% acetonitrile in water over 30 min, 0.5 mL/min, 25.0 °C, UV 214 nm, 1 g/L, triplicate): 16.32 min | ∆tR ([1]; tR of cyclic analog − tR of parent lipopeptide, RP-HPLC, RP-18, 20–65% acetonitrile over 30 min): +1.43 min | MIC C. glabrata [2]: 4 mg/L (≈ 4 µM) | MIC C. lipolytica [3]: 2 mg/L (≈ 2 µM) | MIC C. tropicalis [4]: 2 mg/L (≈ 2 µM) | MIC E. coli [5]: 32 mg/L (≈ 32 µM) | MBEC C. albicans [6]: 64 µg/mL | MBEC C. glabrata [7]: 64 µg/mL | MBEC C. lipolytica [8]: 16 µg/mL | MBEC C. tropicalis [9]: 32 µg/mL | MBEC E. coli [10]: >256 µg/mL | MBEC P. aeruginosa [11]: >256 µg/mL | MBEC S. epidermidis [12]: 128 µg/mL
